The data set can be described thus: physchem. The note with it: octanol/buffer.

The structures appear in SMILES notation.

A word on the logP: it is a log measure of how a compound divides between an organic and an aqueous phase. In the case of `COc1ccccc1COCCCOc1ncc(N2C(=O)CNC[C@@H]2C(=O)N(Cc2cccc(OC)c2C)C2CC2)cn1`, the logP was determined as 2.71.
Molecule `Cc1cc(Cl)c(OCCOc2ccc(N3C(=O)CNC[C@@H]3C(=O)N(C)CCCc3ccccc3)cn2)c(Cl)c1` displayed a logP of 4.29.
Then `COC(=O)NCCc1ccc(Cl)c(CN(C(=O)[C@H]2CNCC(=O)N2c2ccc(CCCOc3c(F)ccc(F)c3F)cc2)C2CC2)c1`, with 5.56; and `O=C(CC(F)(F)F)NCCc1ccc(Cl)c(CN(C(=O)[C@H]2CNCC(=O)N2c2ccc(OCCCOCc3ccccc3)cc2)C2CC2)c1`, with 5.38.
The result for `O=C(OCc1ccc(N2C(=O)CNC[C@@H]2C(=O)N(Cc2cc(CNCC(F)F)ccc2Cl)C2CC2)cc1)c1ccccc1` reads 4.96; that for `CCNCc1ccc(Cl)c(CN(C(=O)[C@H]2CNCC(=O)N2c2ccc(OCCCOCc3ccccc3)cc2)C2CC2)c1`, 5.26.
The result for `COc1ccccc1COCCCOc1ncc(N2C(=O)CNC[C@@H]2C(=O)N(Cc2cc(CNC3CC3)ccc2Cl)C2CC2)cn1` reads 3.52; that for `O=C(NCc1ccccc1Cl)[C@H]1CNCC(=O)N1c1ccc(OCCCOCc2ccccc2)cc1`, 4.26.
As for `O=C([C@H]1CNCC(=O)N1c1ccc(CCCOc2c(F)ccc(F)c2F)cc1)N(Cc1cc(CCNCC(F)F)ccc1Cl)C1CC1`, the logP is 6.05.
Take `COCCCc1cc(CN(C(=O)[C@H]2CNCC(=O)N2c2cnc(OCCCOCc3ccccc3OC)nc2)C2CC2)c(Cl)c[n+]1[O-]`: the logP came to 2.65.
The result for `Cc1cc(Cl)c(OCCOc2ccc(N3C(=O)CNC[C@@H]3C(=O)N(Cc3cc(CNC(=O)CC(F)(F)F)ccc3Cl)C3CC3)cc2)c(Cl)c1` reads 6.02; that for `O=C(NCc1ccccc1)[C@H]1CNCC(=O)N1c1ccc(CCCOc2cccc(Cl)c2)cc1`, 4.46.
With `Cc1cc(Cl)c(OCCOc2ccc(N3C(=O)CNC[C@@H]3C(=O)N(Cc3cc(CCNC(=O)CC(F)(F)F)ccc3Cl)C3CC3)cn2)c(Cl)c1`, the logP is 5.28.
With `COc1c(CN(C(=O)[C@H]2CNCC(=O)N2c2ccc(OCCOc3c(Cl)cc(C)cc3Cl)nc2)C2CC2)ccnc1C`, the lipophilicity (logP) was found to be 3.39.
Then `CNCCc1ccc(Cl)c(CN(C(=O)[C@H]2CNCC(=O)N2c2ccc(OCCCOCc3ccccc3)cc2)C2CC2)c1`, with 5.01.
The result for `CC(=O)NCCc1ccc(Cl)c(CN(C(=O)[C@H]2CNCC(=O)N2c2ccc(OCCCOCc3ccccc3)cc2)C2CC2)c1` reads 4.66; that for `CCC(=O)NCc1ccc(Cl)c(CN(C(=O)[C@H]2CNCC(=O)N2c2ccc(OCCOc3c(Cl)cc(C)cc3Cl)cc2)C2CC2)c1`, 5.77; that for `CNC(=O)OCc1ccc(Cl)c(CN(C(=O)[C@H]2CNCC(=O)N2c2cnc(OCCCOCc3ccccc3OC)nc2)C2CC2)c1`, 2.8.
The result for `COc1ccccc1COCCCOc1ccc(N2C(=O)CNC[C@@H]2C(=O)N(Cc2cc(CC(=O)NC3CC3)ccc2Cl)C2CC2)cc1` reads 5.14; that for `CNC(=O)CCc1ccc(Cl)c(CN(C(=O)[C@H]2CNCC(=O)N2c2ccc(OCCCOCc3ccccc3OC)cc2)C2CC2)c1`, 4.57.
Consider `O=C(OCc1ccc(N2C(=O)CNC[C@@H]2C(=O)N(Cc2cc(CCNCC(F)F)ccc2Cl)C2CC2)cc1)c1ccccc1`, for which the logP amounted to 5.05.
The result for `COc1ccccc1COCCCOc1ncc(N2C(=O)CNC[C@@H]2C(=O)N(Cc2cccc(C)c2C)C2CC2)cn1` reads 3.05.
Then `CNCCc1ccc(Cl)c(CN(C(=O)[C@H]2CNCC(=O)N2c2cnc(OCCCOCc3ccccc3OC)nc2)C2CC2)c1`, with 2.95.
Then `O=C(NCc1ccccc1Cl)[C@H]1CNCC(=O)N1c1ccc(CCCOc2cccc(Cl)c2)cc1`, with 5.05; and `COc1ccccc1COCCCOc1ncc(N2C(=O)CNC[C@@H]2C(=O)N(Cc2ccccc2Cl)C2CC2)cn1`, with 3.05; and `CNC(=O)CCc1ccc(Cl)c(CN(C(=O)[C@H]2CNCC(=O)N2c2ccc(OCCOc3c(Cl)cc(C)cc3Cl)cc2)C2CC2)c1`, with 5.34.
`CCNC(=O)Cc1ccc(Cl)c(CN(C(=O)[C@H]2CNCC(=O)N2c2ccc(CCCOc3c(F)ccc(F)c3F)cc2)C2CC2)c1` showed a logP of 5.49. The logP values of the last two molecules are within 0.2 log units of each other.
The result for `COc1ccccc1COCCCOc1ccc(N2C(=O)CNC[C@@H]2C(=O)N(Cc2cc(CNC(C)=O)ccc2Cl)C2CC2)cc1` reads 4.52; that for `COc1ccccc1COCCCOc1ncc(N2C(=O)CNC[C@@H]2C(=O)N(Cc2cccc(Cl)c2)C2CC2)cn1`, 3.09; that for `COCCCc1cc(CN(C(=O)[C@H]2CNCC(=O)N2c2ccc(CCCOc3cccc(Cl)c3)cc2)C2CC2)c(Cl)c[n+]1[O-]`, 5.51.
Then `O=C([C@H]1CNCC(=O)N1c1ccc(CCCOc2c(F)ccc(F)c2F)cc1)N(Cc1cc(CCNC2CC2)ccc1Cl)C1CC1`, with 6.29; and `O=C([C@H]1CNCC(=O)N1c1ccc(CCCOc2c(F)ccc(F)c2F)cc1)N(Cc1ccc(Cl)cc1)C1CC1`, with 5.73; and `CN(CCCc1ccccc1)C(=O)[C@H]1CNCC(=O)N1c1ccc(COC(=O)c2ccccc2)cc1`, with 4.02.
Then `COc1ccccc1COCCCOc1ccc(N2C(=O)CNC[C@@H]2C(=O)N(C)Cc2ccccc2)cc1`, with 3.82; and `O=C(CC(F)(F)F)NCc1ccc(Cl)c(CN(C(=O)[C@H]2CNCC(=O)N2c2ccc(CCCOc3cccc(Cl)c3)cc2)C2CC2)c1`, with 6.09.
On to `COc1ccccc1COCCCOc1ccc(N2C(=O)CNC[C@@H]2C(=O)N(Cc2cccc(Cl)c2)C2CC2)cc1`, for which the logP stood at 5.1.
Then `Cc1cc(Cl)c(OCCOc2ccc(N3C(=O)CNC[C@@H]3C(=O)N(Cc3cc(CNC4CC4)ccc3Cl)C3CC3)cn2)c(Cl)c1`, with 5.48; and `COc1ccccc1COCCCOc1ccc(N2C(=O)CNC[C@@H]2C(=O)NCc2ccccc2)cc1`, with 3.62.
The result for `COc1c(CN(C(=O)[C@H]2CNCC(=O)N2c2ccc(OCCOc3c(Cl)cc(C)cc3Cl)cc2)C2CC2)ccnc1C` reads 4.22; that for `O=C(NCc1ccc(Cl)c(CN(C(=O)[C@H]2CNCC(=O)N2c2ccc(CCCOc3c(F)ccc(F)c3F)cc2)C2CC2)c1)C1CC1`, 5.54.
As to `CC(=O)NCCc1ccc(Cl)c(CN(C(=O)[C@H]2CNCC(=O)N2c2ccc(CCCOc3cccc(Cl)c3)cc2)C2CC2)c1`, the logP worked out at 5.45.
The result for `CC(=O)NCc1ccc(Cl)c(CN(C(=O)[C@H]2CNCC(=O)N2c2ccc(COC(=O)c3ccccc3)cc2)C2CC2)c1` reads 4.19.
`COCCCc1ccc(Cl)c(CN(C(=O)[C@H]2CNCC(=O)N2c2ccc(OCCOc3c(Cl)cc(C)cc3Cl)cc2)C2CC2)c1` gave a logP of 6.49.
`CNC(=O)CCc1ccc(Cl)c(CN(C(=O)[C@H]2CNCC(=O)N2c2ccc(OCCOc3c(Cl)cc(C)cc3Cl)nc2)C2CC2)c1` came in with a logP of 4.52.
In turn, `O=C([C@H]1CNCC(=O)N1c1ccc(CCCOc2cccc(Cl)c2)cc1)N(Cc1cc(CNC2CC2)ccc1Cl)C1CC1` returned a logP of 6.38.
The result for `O=C([C@H]1CNCC(=O)N1c1ccc(CCCOc2cccc(Cl)c2)cc1)N(Cc1cccc(Cl)c1)C1CC1` reads 5.94; that for `O=C(CC(F)(F)F)NCCc1ccc(Cl)c(CN(C(=O)[C@H]2CNCC(=O)N2c2ccc(CCCOc3c(F)ccc(F)c3F)cc2)C2CC2)c1`, 6.
In turn, `O=C(CC(F)(F)F)NCCc1ccc(Cl)c(CN(C(=O)[C@H]2CNCC(=O)N2c2ccc(CCCOc3cccc(Cl)c3)cc2)C2CC2)c1` registered a logP of 6.18.
Then `CNCCc1ccc(Cl)c(CN(C(=O)[C@H]2CNCC(=O)N2c2ccc(CCCOc3cccc(Cl)c3)cc2)C2CC2)c1`, with 5.81; and `Cc1cc(Cl)c(OCCOc2ccc(N3C(=O)CNC[C@@H]3C(=O)NCc3ccccc3Cl)cc2)c(Cl)c1`, with 4.98; and `CCNC(=O)Cc1ccc(Cl)c(CN(C(=O)[C@H]2CNCC(=O)N2c2ccc(OCCOc3c(Cl)cc(C)cc3Cl)cc2)C2CC2)c1`, with 5.6.
The result for `Cc1cc(Cl)c(OCCOc2ccc(N3C(=O)CNC[C@@H]3C(=O)N(Cc3cc(CCNC(=O)COC(C)(C)C)ccc3Cl)C3CC3)cn2)c(Cl)c1` reads 5.56; that for `O=C([C@H]1CNCC(=O)N1c1ccc(OCCCOCc2ccccc2)cc1)N(Cc1cc(CNC2CC2)ccc1Cl)C1CC1`, 5.58; that for `COc1ccccc1COCCCOc1ccc(N2C(=O)CNC[C@@H]2C(=O)N(Cc2ccnc(C)c2OC)C2CC2)cc1`, 3.45.
Then `O=C(NCc1ccc(Cl)c(CN(C(=O)[C@H]2CNCC(=O)N2c2ccc(CCCOc3cccc(Cl)c3)cc2)C2CC2)c1)C1CC1`, with 5.72; and `Cc1cc(Cl)c(OCCOc2ccc(N3C(=O)CNC[C@@H]3C(=O)NCc3ccccc3)cn2)c(Cl)c1`, with 3.56; and `CNC(=O)OCCc1ccc(Cl)c(CN(C(=O)[C@H]2CNCC(=O)N2c2ccc(CCCOc3c(F)ccc(F)c3F)cc2)C2CC2)c1`, with 5.56.
`O=C([C@H]1CNCC(=O)N1c1ccc(CCCOc2c(F)ccc(F)c2F)cc1)N(Cc1cccc(Cl)c1Cl)C1CC1` displayed a logP of 6.32.
The result for `O=C(OCc1ccc(N2C(=O)CNC[C@@H]2C(=O)N(Cc2ccc(Cl)cc2)C2CC2)cc1)c1ccccc1` reads 4.73.
The result for `CCNCc1ccc(Cl)c(CN(C(=O)[C@H]2CNCC(=O)N2c2ccc(CCCOc3cccc(Cl)c3)cc2)C2CC2)c1` reads 6.06; that for `Cc1cc(Cl)c(OCCOc2ccc(N3C(=O)CNC[C@@H]3C(=O)N(Cc3cc(CNCCF)ccc3Cl)C3CC3)cn2)c(Cl)c1`, 4.94.
On to `CNC(=O)OCCc1ccc(Cl)c(CN(C(=O)[C@H]2CNCC(=O)N2c2cnc(OCCCOCc3ccccc3OC)nc2)C2CC2)c1`, for which the logP is 2.88.
Molecule `COc1c(CN(C(=O)[C@H]2CNCC(=O)N2c2ccc(COC(=O)c3ccccc3)cc2)C2CC2)ccnc1C` yielded a logP of 3.12.
Turning to `COCCCc1cc(CN(C(=O)[C@H]2CNCC(=O)N2c2ccc(COC(=O)c3ccccc3)cc2)C2CC2)c(Cl)cn1`, the logP was 4.11.
The result for `COc1ccccc1COCCCOc1ccc(N2C(=O)CNC[C@@H]2C(=O)N(Cc2cccc(OC)c2C)C2CC2)cc1` reads 4.72; that for `O=C(OCc1ccc(N2C(=O)CNC[C@@H]2C(=O)N(Cc2cccc(Cl)c2Cl)C2CC2)cc1)c1ccccc1`, 5.32.
Then `CC(C)(C)OCC(=O)NCCc1ccc(Cl)c(CN(C(=O)[C@H]2CNCC(=O)N2c2ccc(COC(=O)c3ccccc3)cc2)C2CC2)c1`, with 5.28; and `O=C(NCc1ccccc1)[C@H]1CNCC(=O)N1c1ccc(CCCOc2c(F)ccc(F)c2F)cc1`, with 4.29.

Values taken from ChEMBL document CHEMBL1944551, “An integrated computational workflow for efficient and quantitative modeling of renin inhibitors” (Bioorg Med Chem, 2012).
